Test results from patent US20020137929A1, “1 - (3-heterocyclylphenyl) isothiourea, -isourea, -guanidine and -amidine herbicidal agents” (Intellectual Property Department, BASF Aktiengesellschaft, priority 1998, published 2002).

How the values were obtained:
SETVI (Foxtail, Green) = assay: Preemergence herbicidal evaluation; format: in vivo, Setaria viridis; conditions: rated 4-5 weeks after treatment
How it was run: (§1)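 Sown cups got a single aqueous acetone spray of test compound (roughly 0.0156–0.500 kg/ha) before seedlings emerged. Evaluation, 4–5 weeks on, used a 0–9 visual scale covering plant stand, vigor, size, malformation, chlorosis and general appearance compared with controls.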

CYPSE (Flatsedge) [1] = assay: Postemergence weed control under flooded paddy conditions; format: in vivo, Cyperus serotinus; conditions: postemergence weeds, 3-4 weeks after treatment
How it was run: (§2)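 Herbicidal effect is judged by eye on a 0–9 scale versus control, 3–4 weeks after dosing. Dosing is into flood water kept 1.5–3 cm over the soil, at about 0.0313–0.500 kg/ha in aqueous/acetone 50/50 v/v, on 3–5 cm weeds and 1.5–2.5-leaf rice seedlings.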

CASOB (Sicklepod) = assay: Postemergence herbicidal evaluation; format: in vivo, Cassia obtusifolia; conditions: postemergence
How it was run: (§3)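 Visual 0–9 rating versus control (stand, vigor, malformation, size, chlorosis, overall appearance), taken four to five weeks post-spray. Two-week-old seedlings received roughly 0.0156–0.500 kg/ha active in acetone/water (50/50) with 0.5% TWEEN 20 via nozzle at 40 psi.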

CYPIR (Rice Flatsedge) = assay: Postemergence weed control under flooded paddy conditions; format: in vivo, Cyperus iria; conditions: postemergence weeds, 3-4 weeks after treatment
How it was run: as §2

[2] = test system: GLXMAW (Soybean, Williams); assay: Preemergence herbicidal evaluation; format: in vivo, Glycine max, (L.) Merr. cv Williams; conditions: rated 4-5 weeks after treatment
How it was run: as §1

[3] = test system: SAGPY (Arrowhead (Pygmaea)); assay: Postemergence weed control under flooded paddy conditions; format: in vivo, Sagittaria pygmaea; conditions: postemergence weeds, 3-4 weeks after treatment
How it was run: as §2

AMBEL (Ragweed, Common) = assay: Preemergence herbicidal evaluation; format: in vivo, Ambrosia artemisifolia; conditions: rated 4-5 weeks after treatment
How it was run: as §1

ORYSAT (Rice, Tebonnet) [4] = assay: Preemergence herbicidal evaluation; format: in vivo, Oryza sativa, (L.) Tebonnet; conditions: rated 4-5 weeks after treatment
How it was run: as §1

CYPSE (Flatsedge) [5] = assay: Preemergence weed control under flooded paddy conditions; format: in vivo, Cyperus serotinus; conditions: rated 3-4 weeks after treatment
How it was run: (§4)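 Visual injury scored 0-9 against control three to four weeks post-treatment, greenhouse-grown. Application: acetone/water (50/50) solutions dosed directly into flood water (1.5-3 cm over silt loam, planted top 0.5 cm), roughly 0.0313 to 0.500 kg/ha active ingredient.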

MOOVA (Monochoria) = assay: as above; format: in vivo, Monochoria vaginalis; conditions: rated 3-4 weeks after treatment
How it was run: as §4

[6] = test system: CHEAL (Lambsquarters, Common); assay: Postemergence herbicidal evaluation; format: in vivo, Chenopodium album; conditions: postemergence
How it was run: as §3

ZEAMX (Corn, Field) = assay: Postemergence herbicidal evaluation; format: in vivo, Zea mays; conditions: postemergence
How it was run: as §3

GALAP (Galium) = assay: Postemergence herbicidal evaluation; format: in vivo, Galium aparine; conditions: postemergence
How it was run: as §3

ORYSAT (Rice, Tebonnet) [7] = assay: Postemergence herbicidal evaluation; format: in vivo, Oryza sativa, (L.) Tebonnet; conditions: postemergence
How it was run: as §3

## CCOC(=O)CN1C(=O)C(F)SC1=Nc1cc(-n2c(=O)cc(C(F)(F)F)n(C)c2=O)c(F)cc1Cl (stereo not drawn) [Compound 11, Ethyl 2-{{2-chloro-5-[3,6-dihydro-3-methyl-2,6-dioxo-4-(trifluoromethyl)-1(2H)-pyrimidinyl]-4-fluorophenyl}imino}-5-fluoro-4-oxo-3-thiazolidineacetate]
SETVI (Foxtail, Green); rate 0.0156 kg/ha
  SETVI preemergence herbicidal rating: 0.0
SETVI (Foxtail, Green); rate 0.0313 kg/ha
  SETVI preemergence herbicidal rating: 1.0
SETVI (Foxtail, Green); rate 0.0625 kg/ha
  SETVI preemergence herbicidal rating: 7.0
SETVI (Foxtail, Green); rate 0.1250 kg/ha
  SETVI preemergence herbicidal rating: 7.5
SETVI (Foxtail, Green); rate 0.2500 kg/ha
  SETVI preemergence herbicidal rating: 9.0
CYPSE (Flatsedge) [1]; rate 0.0313 kg/ha
  Herbicidal rating CYPSE: 0.0
CYPSE (Flatsedge) [1]; rate 0.0625 kg/ha
  Herbicidal rating CYPSE: 0.0
CYPSE (Flatsedge) [1]; rate 0.1250 kg/ha
  Herbicidal rating CYPSE: 0.0
CYPSE (Flatsedge) [1]; rate 0.2500 kg/ha
  Herbicidal rating CYPSE: 0.0
CASOB (Sicklepod); rate 0.0156 kg/ha
  CASOB herbicidal rating: 0.0
CASOB (Sicklepod); rate 0.0313 kg/ha
  CASOB herbicidal rating: 0.0
CASOB (Sicklepod); rate 0.0625 kg/ha
  CASOB herbicidal rating: 0.0
CASOB (Sicklepod); rate 0.1250 kg/ha
  CASOB herbicidal rating: 3.0
CYPIR (Rice Flatsedge); rate 0.0313 kg/ha
  Herbicidal rating CYPIR: 0.0
CYPIR (Rice Flatsedge); rate 0.0625 kg/ha
  Herbicidal rating CYPIR: 0.0
CYPIR (Rice Flatsedge); rate 0.1250 kg/ha
  Herbicidal rating CYPIR: 0.0
CYPIR (Rice Flatsedge); rate 0.2500 kg/ha
  Herbicidal rating CYPIR: 0.0
[2]; rate 0.0156 kg/ha
  GLXMAW preemergence herbicidal rating: 1.5
[2]; rate 0.0313 kg/ha
  GLXMAW preemergence herbicidal rating: 1.5
[2]; rate 0.0625 kg/ha
  GLXMAW preemergence herbicidal rating: 3.5
[2]; rate 0.1250 kg/ha
  GLXMAW preemergence herbicidal rating: 6.0
[2]; rate 0.2500 kg/ha
  GLXMAW preemergence herbicidal rating: 8.0
[3]; rate 0.0313 kg/ha
  Herbicidal rating SAGPY: 0.0
[3]; rate 0.0625 kg/ha
  Herbicidal rating SAGPY: 0.0
[3]; rate 0.1250 kg/ha
  Herbicidal rating SAGPY: 0.0
[3]; rate 0.2500 kg/ha
  Herbicidal rating SAGPY: 0.0
AMBEL (Ragweed, Common); rate 0.0156 kg/ha
  AMBEL preemergence herbicidal rating: 0.0
AMBEL (Ragweed, Common); rate 0.0313 kg/ha
  AMBEL preemergence herbicidal rating: 1.0
AMBEL (Ragweed, Common); rate 0.0625 kg/ha
  AMBEL preemergence herbicidal rating: 5.5
AMBEL (Ragweed, Common); rate 0.1250 kg/ha
  AMBEL preemergence herbicidal rating: 6.5
AMBEL (Ragweed, Common); rate 0.2500 kg/ha
  AMBEL preemergence herbicidal rating: 9.0
ORYSAT (Rice, Tebonnet) [4]; rate 0.0156 kg/ha
  ORYSAT preemergence herbicidal rating: 0.0
ORYSAT (Rice, Tebonnet) [4]; rate 0.0313 kg/ha
  ORYSAT preemergence herbicidal rating: 0.0
ORYSAT (Rice, Tebonnet) [4]; rate 0.0625 kg/ha
  ORYSAT preemergence herbicidal rating: 0.0
ORYSAT (Rice, Tebonnet) [4]; rate 0.1250 kg/ha
  ORYSAT preemergence herbicidal rating: 2.0
ORYSAT (Rice, Tebonnet) [4]; rate 0.2500 kg/ha
  ORYSAT preemergence herbicidal rating: 4.0
CYPSE (Flatsedge) [5]; 0.0313 kg/ha
  Herbicidal rating CYPSE: 0.0
CYPSE (Flatsedge) [5]; 0.0625 kg/ha
  Herbicidal rating CYPSE: 0.0
CYPSE (Flatsedge) [5]; 0.1250 kg/ha
  Herbicidal rating CYPSE: 0.0
CYPSE (Flatsedge) [5]; 0.2500 kg/ha
  Herbicidal rating CYPSE: 0.0
MOOVA (Monochoria); 0.0313 kg/ha
  Herbicidal rating MOOVA: 0.0
MOOVA (Monochoria); 0.0625 kg/ha
  Herbicidal rating MOOVA: 1.0
MOOVA (Monochoria); 0.1250 kg/ha
  Herbicidal rating MOOVA: 4.0
MOOVA (Monochoria); 0.2500 kg/ha
  Herbicidal rating MOOVA: 7.0
[6]; rate 0.0156 kg/ha
  CHEAL herbicidal rating: 7.0
[6]; rate 0.0313 kg/ha
  CHEAL herbicidal rating: 9.0
[6]; rate 0.0625 kg/ha
  CHEAL herbicidal rating: 9.0
[6]; rate 0.1250 kg/ha
  CHEAL herbicidal rating: 9.0
ZEAMX (Corn, Field); rate 0.0156 kg/ha
  ZEAMX herbicidal rating: 6.5
ZEAMX (Corn, Field); rate 0.0313 kg/ha
  ZEAMX herbicidal rating: 6.5
ZEAMX (Corn, Field); rate 0.0625 kg/ha
  ZEAMX herbicidal rating: 7.5
ZEAMX (Corn, Field); rate 0.1250 kg/ha
  ZEAMX herbicidal rating: 7.5
GALAP (Galium); rate 0.0156 kg/ha
  GALAP herbicidal rating: 3.0
GALAP (Galium); rate 0.0313 kg/ha
  GALAP herbicidal rating: 5.0
GALAP (Galium); rate 0.0625 kg/ha
  GALAP herbicidal rating: 6.0
GALAP (Galium); rate 0.1250 kg/ha
  GALAP herbicidal rating: 6.0
ORYSAT (Rice, Tebonnet) [7]; rate 0.0156 kg/ha
  ORYSAT herbicidal rating: 2.0
ORYSAT (Rice, Tebonnet) [7]; rate 0.0313 kg/ha
  ORYSAT herbicidal rating: 2.0
ORYSAT (Rice, Tebonnet) [7]; rate 0.0625 kg/ha
  ORYSAT herbicidal rating: 3.0
ORYSAT (Rice, Tebonnet) [7]; rate 0.1250 kg/ha
  ORYSAT herbicidal rating: 3.0
